Data: ChEMBL document CHEMBL5303304, “EUbOPEN Chemogenomics Library - IncuCyte” (2023)

What was measured:
Assay type in all cases: toxicity, cell-based
HEK-293T = experiment: Incucyte cell viability with HEK293T; conditions: human, 10 µM, compound concentration 10 uM
Fibroblast = experiment: Incucyte cell viability with human fibroblast; conditions: 10 µM, compound concentration 10 uM
U2OS = experiment: Incucyte cell viability with U2OS; conditions: human, 10 µM, compound concentration 10 uM
Further: unitless GR value; below 1 slowed growth and below 0 cell loss.

Structure (SMILES)	Growth Rate (HEK-293T; 0 h, replicate number 1)	Growth Rate (HEK-293T; 6 h, replicate number 2)	Growth Rate (HEK-293T; 18 h, replicate number 2)	Growth Rate (Fibroblast; 0 h, replicate number 1)	Growth Rate (Fibroblast; 0 h, replicate number 2)	Growth Rate (Fibroblast; 6 h, replicate number 1)	Growth Rate (Fibroblast; 6 h, replicate number 2)	Growth Rate (Fibroblast; 12 h, replicate number 1)	Growth Rate (Fibroblast; 12 h, replicate number 2)	Growth Rate (Fibroblast; 18 h, replicate number 1)	Growth Rate (Fibroblast; 18 h, replicate number 2)	Growth Rate (Fibroblast; 24 h, replicate number 1)	Growth Rate (U2OS; 0 h, replicate number 2)	Growth Rate (U2OS; 6 h, replicate number 1)	Growth Rate (U2OS; 6 h, replicate number 2)	Growth Rate (U2OS; 12 h, replicate number 1)	Growth Rate (U2OS; 12 h, replicate number 2)	Growth Rate (U2OS; 18 h, replicate number 2)	Growth Rate (U2OS; 24 h, replicate number 2)	Growth Rate (U2OS; 24 h, replicate number 1)	also measured
Cc1ccc(S(=O)(=O)O)cc1.Cn1cc(Nc2nccc(N3CC4CCC(C3)N4C(=O)[C@@H]3CC3(F)F)n2)cn1	0.13	0.93	0.98	0.69	0.55	0.01	0.12	0.8	0.69	0.4	0.88	1	0.58	0.03	0.95	-0.28	0.96	0.84	0.8	–	–
Cc1c[nH]c(-c2cnc(NCCNc3ccc(C#N)cn3)nc2-c2ccc(Cl)cc2Cl)n1 [LADUVIGLUSIB]	0.82	0.14	0.7	–	–	0.56	0.81	-0.47	-0.19	-0.4	-0.3	-0.33	–	0.47	–	0.48	0.87	0.93	0.99	0.56	Growth Rate (HEK-293T; 0 h, replicate number 2): 0.92; Growth Rate (HEK-293T; 6 h, replicate number 1): 0.35; Growth Rate (HEK-293T; 12 h, replicate number 1): 0.49; Growth Rate (HEK-293T; 12 h, replicate number 2): 0.43; Growth Rate (HEK-293T; 18 h, replicate number 1): 0.58; Growth Rate (HEK-293T; 24 h, replicate number 1): 0.71; Growth Rate (HEK-293T; 24 h, replicate number 2): 0.75; Growth Rate (Fibroblast; 24 h, replicate number 2): -0.28; Growth Rate (U2OS; 0 h, replicate number 1): 0.54; Growth Rate (U2OS; 18 h, replicate number 1): 0.83
CN(C)C(=O)Cn1cc(-c2nc([C@@](C)(c3ccc(-c4cnc(N)nc4)cc3)C3CC3)no2)cn1 [BI 665915]	0.53	–	0.9	-1	-0.12	0.2	–	0.51	–	0.71	0.97	0.6	0.28	0.55	0.71	0.68	0.87	0.99	0.88	0.95	Growth Rate (HEK-293T; 6 h, replicate number 1): 0.47; Growth Rate (HEK-293T; 18 h, replicate number 1): 0.93; Growth Rate (HEK-293T; 24 h, replicate number 1): 0.96
CC#CC(=O)N1CCN(c2nc(-c3ccc(Oc4ccccc4)cc3)c(C(N)=O)s2)CC1	–	0.66	0.6	0.51	0.75	0.87	0.18	0.5	0.22	0.52	0.4	0.32	–	0.5	0.82	0.55	0.92	0.94	0.94	0.69	Growth Rate (HEK-293T; 0 h, replicate number 2): -0.85; Growth Rate (HEK-293T; 6 h, replicate number 1): 0.41; Growth Rate (HEK-293T; 12 h, replicate number 1): 0.43; Growth Rate (HEK-293T; 12 h, replicate number 2): 0.74; Growth Rate (HEK-293T; 18 h, replicate number 1): 0.61; Growth Rate (HEK-293T; 24 h, replicate number 1): 0.66; Growth Rate (HEK-293T; 24 h, replicate number 2): 0.64; Growth Rate (Fibroblast; 24 h, replicate number 2): 0.44; Growth Rate (U2OS; 0 h, replicate number 1): 0.94; Growth Rate (U2OS; 18 h, replicate number 1): 0.66
COc1ccc([C@@H]2Sc3ccccc3N(CCN(C)C)C(=O)[C@@H]2OC(C)=O)cc1.Cl [DILTIAZEM HYDROCHLORIDE]	0.6	0.11	0.86	0.54	-0.94	–	–	-0.67	–	0.89	0.94	0.57	-0.41	–	–	–	–	0.94	–	–	Growth Rate (HEK-293T; 12 h, replicate number 2): 0.55; Growth Rate (HEK-293T; 24 h, replicate number 2): 0.86; Growth Rate (Fibroblast; 24 h, replicate number 2): 0.87
CC(C)S(=O)(=O)c1ccccc1Nc1nc(N[C@@H]2CCCN(CCCCCCCNC(=O)COc3cccc4c3C(=O)N(C3CCC(=O)NC3=O)C4=O)C2)ncc1Cl (some centres not stated)	-1	-0.73	-0.49	-1	–	-0.22	0.14	-0.39	-0.49	-0.33	-0.45	-0.23	–	0.86	–	0.25	0.57	0.15	0.04	-0.23	Growth Rate (HEK-293T; 6 h, replicate number 1): -0.44; Growth Rate (HEK-293T; 12 h, replicate number 1): -0.41; Growth Rate (HEK-293T; 12 h, replicate number 2): -0.59; Growth Rate (HEK-293T; 18 h, replicate number 1): -0.31; Growth Rate (HEK-293T; 24 h, replicate number 1): -0.24; Growth Rate (HEK-293T; 24 h, replicate number 2): -0.38; Growth Rate (Fibroblast; 24 h, replicate number 2): -0.45; Growth Rate (U2OS; 0 h, replicate number 1): -1; Growth Rate (U2OS; 18 h, replicate number 1): 0.03
CCCN1CCC(C#N)(NC(=O)[C@H](CC(C)(C)C)NC(=O)N2CCOCC2)CC1	0.04	–	–	–	-0.89	0.97	–	0.82	0.45	0.88	–	0.83	0.82	0.96	–	–	–	–	–	–	–
O=C(/N=c1\sccn1Cc1ccccc1)c1c[nH]c2ncccc12	-0.78	–	–	–	–	-1	–	–	–	–	–	–	-0.96	–	–	–	–	–	–	–	Growth Rate (HEK-293T; 0 h, replicate number 2): -0.86
CS(=O)(=O)O.C[C@H](NC(=O)c1cnc2n1[C@](C)(Cc1ccc(C#N)cc1)C(=O)N2c1cc(Cl)c(F)c(Cl)c1)C(=O)NC1(c2ccccn2)CC1	0.44	–	–	-1	–	0.73	0.85	–	0.94	0.98	0.61	0.73	-0.46	0.8	0.54	0.92	0.49	0.81	–	0.82	Growth Rate (HEK-293T; 0 h, replicate number 2): 0.94; Growth Rate (Fibroblast; 24 h, replicate number 2): 0.87; Growth Rate (U2OS; 18 h, replicate number 1): 0.98
Cl.Clc1ccc(OC[C@H]2CCN2)cn1	0.45	0.93	–	–	–	-0.66	-0.05	–	0.34	–	0.83	–	–	-0.1	0.54	0.58	–	0.97	0.97	0.76	Growth Rate (HEK-293T; 6 h, replicate number 1): 0.64; Growth Rate (HEK-293T; 12 h, replicate number 2): 0.94; Growth Rate (HEK-293T; 18 h, replicate number 1): 0.8; Growth Rate (HEK-293T; 24 h, replicate number 1): 0.83; Growth Rate (U2OS; 0 h, replicate number 1): -0.28; Growth Rate (U2OS; 18 h, replicate number 1): 0.72
